The experiment concerns the target PIK3CG (human) (UniProt P48736). The experiment can be described thus: Assessment of PIK3CG Kinase Activity.

Chain of PIK3CG (human) (P48736 whole entry, looked up): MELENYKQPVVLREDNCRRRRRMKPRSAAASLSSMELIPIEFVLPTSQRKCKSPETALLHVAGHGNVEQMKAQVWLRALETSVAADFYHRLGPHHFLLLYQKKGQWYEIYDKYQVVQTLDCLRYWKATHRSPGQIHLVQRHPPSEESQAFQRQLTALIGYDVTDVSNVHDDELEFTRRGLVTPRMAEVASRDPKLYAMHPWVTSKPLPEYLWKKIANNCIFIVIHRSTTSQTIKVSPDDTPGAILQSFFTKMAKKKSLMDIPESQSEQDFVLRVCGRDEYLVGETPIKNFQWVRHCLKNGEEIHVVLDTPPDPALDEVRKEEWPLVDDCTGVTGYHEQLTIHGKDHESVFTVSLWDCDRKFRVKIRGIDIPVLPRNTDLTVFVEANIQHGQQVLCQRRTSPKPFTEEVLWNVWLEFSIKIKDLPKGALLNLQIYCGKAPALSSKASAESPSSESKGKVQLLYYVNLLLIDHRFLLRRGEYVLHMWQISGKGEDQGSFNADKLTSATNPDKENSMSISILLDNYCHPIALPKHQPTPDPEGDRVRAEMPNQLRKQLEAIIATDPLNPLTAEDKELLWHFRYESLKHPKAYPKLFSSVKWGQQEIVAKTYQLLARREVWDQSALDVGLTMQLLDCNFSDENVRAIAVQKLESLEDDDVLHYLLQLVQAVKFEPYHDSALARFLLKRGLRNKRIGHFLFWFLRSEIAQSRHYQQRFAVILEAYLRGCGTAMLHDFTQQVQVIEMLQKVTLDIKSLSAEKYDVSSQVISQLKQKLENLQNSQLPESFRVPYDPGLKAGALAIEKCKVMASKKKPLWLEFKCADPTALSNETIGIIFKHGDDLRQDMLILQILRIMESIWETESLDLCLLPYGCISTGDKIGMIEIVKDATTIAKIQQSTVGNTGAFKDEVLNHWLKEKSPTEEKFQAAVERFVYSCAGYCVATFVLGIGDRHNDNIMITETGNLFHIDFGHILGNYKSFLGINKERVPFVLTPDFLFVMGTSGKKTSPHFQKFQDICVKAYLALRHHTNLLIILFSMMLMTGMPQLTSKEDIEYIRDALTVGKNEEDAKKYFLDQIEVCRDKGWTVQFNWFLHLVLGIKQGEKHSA

Turning to `CC(=O)N(C)c1cccc(CNC(=O)Nc2nc3c(s2)-c2c(c(-c4cncnc4)nn2-c2ccccc2Cl)CC3)c1`, the IC50 is under 800 nM.
The same measure for `CN(C)C(=O)N1CC[C@H](CNC(=O)Nc2nc3c(s2)-c2c(c(-c4ccccc4)nn2-c2cccc(Cl)c2)CC3)C1`: under 800 nM; for `CS(=O)(=O)Nc1ccc(NC(=O)Nc2nc3c(s2)-c2c(c(-c4ccccc4)nn2-c2ccccc2Cl)CC3)cc1`: under 800 nM; for `O=C1Cc2ccccc2CN1CC1CCN(C(=O)Nc2nc3c(s2)-c2c(c(-c4cccnc4)nn2-c2ccccc2Cl)CC3)C1` (configuration not stated): under 800 nM.
The same measure for `O=C1CCC(CNC(=O)Nc2nc3c(s2)-c2c(c(-c4cccnc4)nn2-c2ccccc2Cl)CC3)N1` (configuration not stated): under 800 nM; for `CN1CCC(O)C2(CCCN(C(=O)Nc3nc4c(s3)-c3c(c(-c5cccnc5)nn3-c3ccccc3Cl)CC4)C2)C1` (configuration not stated): under 800 nM; for `O=C(NCCc1ccc2c(c1)OCCO2)Nc1nc2c(s1)-c1c(c(-c3cncnc3)nn1-c1ccccc1Cl)CC2`: under 800 nM.
Take `O=C1CCC(NC(=O)Nc2nc3c(s2)-c2c(c(-c4cccnc4)nn2-c2ccccc2Cl)CC3)C(c2ccccc2)N1` (configuration not stated): the IC50 was under 800 nM.
`CC(C)c1noc(CCNC(=O)Nc2nc3c(s2)-c2c(c(-c4cncnc4)nn2-c2ccccc2Cl)CC3)n1`: the IC50 is under 800 nM.
As for `C[C@H](NC(=O)Nc1nc2c(s1)-c1c(c(-c3ccccc3)nn1-c1ccccc1Cl)CC2)C(=O)N1CCCCC1`, the figure is under 800 nM.
`CCNC(=O)Nc1nc2c(s1)-c1c(c(-c3cccnc3)nn1-c1ccc(S(N)(=O)=O)cc1Cl)CC2` returned an IC50 of under 800 nM.
The same measure for `Cc1nc[nH]c1-c1cccc(CNC(=O)Nc2nc3c(s2)-c2c(c(-c4cncnc4)nn2-c2ccccc2Cl)CC3)c1`: under 800 nM; for `CCCn1cnc(CCNC(=O)Nc2nc3c(s2)-c2c(c(-c4ccccc4)nn2-c2cccc(Cl)c2)CC3)c1`: under 800 nM.
As for `NC(=O)c1cccc(CNC(=O)Nc2nc3c(s2)-c2c(c(-c4cccnc4)nn2-c2ccccc2Cl)CC3)c1`, the figure is under 800 nM; as for `C[C@@H](NC(=O)Nc1nc2c(s1)-c1c(c(-c3ccccc3)nn1-c1ccccc1Cl)CC2)C(=O)N(C)C`, under 800 nM; as for `CC(C)c1nnc(CCNC(=O)Nc2nc3c(s2)-c2c(c(-c4ccccc4)nn2-c2cccc(Cl)c2)CC3)o1`, under 800 nM.
The same measure for `CNC(=O)c1cccc(CNC(=O)Nc2nc3c(s2)-c2c(c(-c4cccnc4)nn2C2CCN(C)CC2)CC3)c1`: under 800 nM.
`O=C(NCc1ccc2nc[nH]c2c1)Nc1nc2c(s1)-c1c(c(-c3cncnc3)nn1-c1ccccc1Cl)CC2` returned an IC50 of under 800 nM.
The same measure for `CC(C)(C)OC(=O)N1CCC[C@@H]1CNC(=O)Nc1nc2c(s1)-c1c(c(-c3cccnc3)nn1-c1ccccc1Cl)CC2`: under 800 nM; for `O=C(Nc1nc2c(s1)-c1c(c(-c3cccnc3)nn1-c1ccccc1Cl)CC2)N1CCC(N2Cc3ccccc3NC2=O)C1` (configuration not stated): under 800 nM; for `O=C(NC[C@H]1CCNC1)Nc1nc2c(s1)-c1c(c(-c3ccccc3)nn1-c1cccc(Cl)c1)CC2`: under 800 nM.
The same measure for `CNC(=O)Nc1nc2c(s1)-c1c(c(-c3cccnc3)nn1-c1ccc(S(N)(=O)=O)cc1Cl)CC2`: under 800 nM; for `COc1ccccc1C1CCN(C(=O)Nc2nc3c(s2)-c2c(c(-c4cccnc4)nn2-c2ccccc2Cl)CC3)C1` (configuration not stated): under 800 nM.
The same measure for `O=C(NC[C@H]1CCCN1)Nc1nc2c(s1)-c1c(c(-c3cncnc3)nn1-c1ccccc1Cl)CC2`: under 800 nM; for `NC(=O)c1cccc(CNC(=O)Nc2nc3c(s2)-c2c(c(-c4cccnc4)nn2C2CCN(C4CCCC4)CC2)CC3)c1`: under 800 nM.
With `O=C(NCCc1nc(C2CC2)no1)Nc1nc2c(s1)-c1c(c(-c3cncnc3)nn1-c1ccccc1Cl)CC2`, the IC50 is under 800 nM.
As for `CC(NC(=O)Nc1nc2c(s1)-c1c(c(-c3cccnc3)nn1-c1ccccc1Cl)CC2)c1cccc(NC(=O)OC(C)(C)C)c1` (configuration not stated), the figure is under 800 nM; as for `CCc1nnc(CCNC(=O)Nc2nc3c(s2)-c2c(c(-c4cncnc4)nn2-c2ccccc2Cl)CC3)o1`, under 800 nM.
As for `CN(C)c1cccc(CNC(=O)Nc2nc3c(s2)-c2c(c(-c4cccnc4)nn2-c2ccccc2Cl)CC3)c1`, the figure is under 800 nM; as for `Cn1cc(CCNC(=O)Nc2nc3c(s2)-c2c(c(-c4cncnc4)nn2-c2ccccc2Cl)CC3)cn1`, under 800 nM; as for `CC(C)(C)OC(=O)N1CCCCC1CNC(=O)Nc1nc2c(s1)-c1c(c(-c3cccnc3)nn1-c1ccccc1Cl)CC2` (configuration not stated), under 800 nM.
The same measure for `CC(C)c1nnc(CCNC(=O)Nc2nc3c(s2)-c2c(c(-c4cncnc4)nn2-c2ccccc2Cl)CC3)o1`: under 800 nM; for `O=C(NCc1ccccc1-n1cccn1)Nc1nc2c(s1)-c1c(c(-c3cccnc3)nn1-c1ccccc1Cl)CC2`: under 800 nM.
Molecule `O=C(NCc1cccnc1N1CCCC1)Nc1nc2c(s1)-c1c(c(-c3cncnc3)nn1-c1ccccc1Cl)CC2` displayed an IC50 of under 800 nM.
As for `O=C(NCCNS(=O)(=O)C1CC1)Nc1nc2c(s1)-c1c(c(-c3ccccc3)nn1-c1ccccc1Cl)CC2`, the figure is under 800 nM; as for `CNC(=O)c1cccc(CNC(=O)Nc2nc3c(s2)-c2c(c(-c4cccnc4)nn2-c2ccccc2Cl)CC3)c1`, under 800 nM.
As for `CC(C)(C)OC(=O)N1CCC(C(=O)N2CCC[C@@H]2CNC(=O)Nc2nc3c(s2)-c2c(c(-c4cncnc4)nn2-c2ccccc2Cl)CC3)C1` (some centres not stated), the figure is under 800 nM.
The molecule `CNC(=O)Nc1nc2c(s1)-c1c(c(-c3cncnc3)nn1-c1ccccc1Cl)CC2` registered an IC50 of under 800 nM.
As to `Cn1cc(CNC(=O)Nc2nc3c(s2)-c2c(c(-c4cccnc4)nn2-c2ccccc2Cl)CC3)cn1`, the IC50 is under 800 nM.
As for `O=C(NC[C@H]1CCCN1C(=O)N1CCCC1)Nc1nc2c(s1)-c1c(c(-c3cncnc3)nn1-c1ccccc1Cl)CC2`, the figure is under 800 nM.
The same measure for `O=C(NCCC(=O)N1CCOCC1)Nc1nc2c(s1)-c1c(c(-c3ccccc3)nn1-c1ccccc1Cl)CC2`: under 800 nM.
The same measure for `CC(C)(C)OC(=O)Nc1cccc(CNC(=O)Nc2nc3c(s2)-c2c(c(-c4cncnc4)nn2-c2ccccc2Cl)CC3)c1`: under 800 nM; for `CN1CCN(CCCNC(=O)Nc2nc3c(s2)-c2c(c(-c4cncnc4)nn2-c2ccccc2F)CC3)CC1`: under 800 nM.
The molecule `CC(C)c1cccc(CNC(=O)Nc2nc3c(s2)-c2c(c(C4CC4)nn2-c2ccccc2Cl)CC3)c1` yielded an IC50 of under 800 nM.
For the molecule `CCc1cnc(CCNC(=O)Nc2nc3c(s2)-c2c(c(-c4ccccc4)nn2-c2cccc(Cl)c2)CC3)o1`, the IC50 was under 800 nM.
As for `CCc1cnc(CCNC(=O)Nc2nc3c(s2)-c2c(c(-c4cncnc4)nn2-c2ccccc2Cl)CC3)o1`, the figure is under 800 nM.
`O=C(NCCc1cccnc1)Nc1nc2c(s1)-c1c(c(-c3cccnc3)nn1-c1ccccc1Cl)CC2` had an IC50 of under 800 nM.
In turn, `Nc1nnc(CNC(=O)Nc2nc3c(s2)-c2c(c(-c4cncnc4)nn2-c2ccccc2Cl)CC3)[nH]1` yielded an IC50 of under 800 nM.
The same measure for `CC(=O)Nc1cccc(CNC(=O)Nc2nc3c(s2)-c2c(c(-c4cncnc4)nn2-c2ccccc2Cl)CC3)c1`: under 800 nM; for `O=C1CCC(CNC(=O)Nc2nc3c(s2)-c2c(c(-c4cncnc4)nn2-c2ccccc2Cl)CC3)N1` (configuration not stated): under 800 nM; for `NS(=O)(=O)c1ccc(CNC(=O)Nc2nc3c(s2)-c2c(c(-c4cncnc4)nn2-c2ccccc2Cl)CC3)cc1`: under 800 nM.
As for `CCn1cnc(CCNC(=O)Nc2nc3c(s2)-c2c(c(-c4ccccc4)nn2-c2cccc(Cl)c2)CC3)c1`, the figure is under 800 nM.
As for `CNC(=O)c1cccc(CNC(=O)Nc2nc3c(s2)-c2c(c(-c4cccnc4)nn2C2CCN(C4CCCC4)CC2)CC3)c1`, the figure is under 800 nM.
Take `CN(C)C(=O)CCNC(=O)Nc1nc2c(s1)-c1c(c(-c3ccccc3)nn1-c1ccccc1Cl)CC2`: the concentration for half-maximal inhibition (IC50) is under 800 nM.
The same measure for `O=C(NCCc1ccccn1)Nc1nc2c(s1)-c1c(c(-c3cccnc3)nn1-c1ccccc1Cl)CC2`: under 800 nM; for `COc1ccc(S(=O)(=O)NCCNC(=O)Nc2nc3c(s2)-c2c(c(-c4ccccc4)nn2-c2ccccc2Cl)CC3)cc1`: under 800 nM; for `CCc1cccc(CNC(=O)Nc2nc3c(s2)-c2c(c(C4CC4)nn2-c2ccccc2Cl)CC3)c1`: under 800 nM.
The same measure for `O=C(Nc1nc2c(s1)-c1c(c(-c3cccnc3)nn1-c1ccccc1Cl)CC2)N1CCC(NC(=O)C(F)(F)F)C1` (configuration not stated): under 800 nM; for `CCn1cnc(CCNC(=O)Nc2nc3c(s2)-c2c(c(-c4ccccc4)nn2-c2ccccc2Cl)CC3)c1`: under 800 nM; for `O=C(NCCCN1CCOCC1)Nc1nc2c(s1)-c1c(c(-c3cncnc3)nn1-c1ccccc1Cl)CC2`: under 800 nM.
The same measure for `COc1cccc(CCNC(=O)Nc2nc3c(s2)-c2c(c(-c4cncnc4)nn2-c2ccccc2Cl)CC3)c1OC`: under 800 nM; for `CN1CCN(C(=O)Nc2nc3c(s2)-c2c(cnn2-c2ccccc2)CC3)CC1`: under 800 nM; for `CC(C)c1nnc(CCNC(=O)Nc2nc3c(s2)-c2c(c(-c4cccnc4)nn2C2CCN(C)CC2)CC3)o1`: under 800 nM.
Turning to `CCN(CC)C(=O)N1CC[C@H](CNC(=O)Nc2nc3c(s2)-c2c(c(-c4cncnc4)nn2-c2ccccc2Cl)CC3)C1`, the IC50 was under 800 nM.
Turning to `CN1CCN(C(=O)CCCNC(=O)Nc2nc3c(s2)-c2c(c(-c4ccccc4)nn2-c2ccccc2Cl)CC3)CC1`, the IC50 is under 800 nM.
The same measure for `CC(C)(C)OCCNC(=O)Nc1nc2c(s1)-c1c(c(-c3ccccc3)nn1-c1ccccc1Cl)CC2`: under 800 nM.
The same measure for `O=C(NCCNS(=O)(=O)c1cccnc1)Nc1nc2c(s1)-c1c(c(-c3ccccc3)nn1-c1ccccc1Cl)CC2`: under 800 nM.
Regarding `O=C(NC[C@H]1CCN(C(=O)N2CCCCC2)C1)Nc1nc2c(s1)-c1c(c(-c3cncnc3)nn1-c1ccccc1Cl)CC2`, the IC50 was under 800 nM.
The same measure for `NS(=O)(=O)c1ccc(-n2nc(-c3cccnc3)c3c2-c2sc(NC(=O)NCc4cccc(N5CCNC5=O)c4)nc2CC3)c(Cl)c1`: under 800 nM.
As for `O=C(Nc1nc2c(s1)-c1c(c(-c3cncnc3)nn1-c1ccccc1Cl)CC2)NC1CCCNC1` (configuration not stated), the figure is under 800 nM; as for `NC(=O)c1cccc(CNC(=O)Nc2nc3c(s2)-c2c(c(C4CC4)nn2-c2ccccc2Cl)CC3)c1`, under 800 nM; as for `CC(C)(C)OC(=O)N1CC[C@@H](CNC(=O)Nc2nc3c(s2)-c2c(c(-c4cncnc4)nn2-c2ccccc2Cl)CC3)C1`, under 800 nM.

What is called IC50 is the point on the concentration scale where inhibition reaches its midpoint. Low values mean inhibition by little substance, high ones a need for much substance.

Source of the values: the Kinase Knowledgebase extract (Sharma et al. 2016).
